Data reported in patent US20040034076A1, “Novel carbamates and carbamides, production and use thereof as endothelin receptor antagonists” (priority 2000, published 2004).

Assays:
[1] = target: T1, human ETA receptor (Homo sapiens, UniProt P25101); assay: ETA receptor binding test ([125J]-ET1, CHO cell membranes); conditions: cloned human ETA receptor-expressing CHO cell membranes, 25 pM [125J]-ET1, 25° C., 30 min
T1 construct: expressed in transfected cells; host or cells: CHO cells
T1 sequence (P25101 21-427): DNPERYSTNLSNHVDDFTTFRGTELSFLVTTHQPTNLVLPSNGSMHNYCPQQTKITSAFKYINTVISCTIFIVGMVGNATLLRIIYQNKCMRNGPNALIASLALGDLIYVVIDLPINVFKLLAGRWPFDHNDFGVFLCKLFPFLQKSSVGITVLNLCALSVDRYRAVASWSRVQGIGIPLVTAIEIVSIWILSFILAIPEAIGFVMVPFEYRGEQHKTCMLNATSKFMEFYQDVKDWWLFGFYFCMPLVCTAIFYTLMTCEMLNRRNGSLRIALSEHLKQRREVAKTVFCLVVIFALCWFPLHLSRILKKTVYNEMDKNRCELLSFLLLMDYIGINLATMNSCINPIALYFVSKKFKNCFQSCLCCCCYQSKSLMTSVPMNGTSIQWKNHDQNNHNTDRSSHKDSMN
Description: (§1) For binding studies, cloned human ETA or ETB receptor-expressing CHO cells were employed.
(§2) The ETA or ETB receptor-expressing CHO cells were proliferated in DMEM NUT MIX F12 medium (Gibco, No. 21331-020) using 10% fetal calf serum (PAA Laboratories GmbH, Linz, No. A15-022), 1 mM glutamine (Gibco No. 25030-024), 100 U/ml of penicillin and 100 μg/ml of streptomycin (Gibco, Sigma No P-0781). After 48 hours, the cells were washed with PBS and incubated at 37° C. for 5 minutes with 0.05% trypsin-containing PBS. Neutralization was then carried out with medium and the cells were collected by centrifugation at 300×g.
(§3) For membrane preparation, the cells were adjusted to a concentration of 10^8 cells/ml of buffer (50 mM tris-HCl buff r, pH 7.4) and then disintegrated by ultrasound (Branson Sonifier 250, 40-70 seconds/constant/output 20).
(§4) For the ETA and ETB receptor binding test, the membranes were suspended in incubation buffer (50 mM tris HCl, pH 7.4 with 5 mM MnCl2, 40 mg/ml of bacitracin and 0.2% of BSA) in a concentration of 50 μg of protein per test batch and incubated at 25° C. with 25 pM of [125J]-ET1 (ETA receptor test) or 25 pM of [125I)-ET3 (ETB receptor test) in the presence and absence of test substance. The nonspecific binding was determined using 10^−7 M ET1. After 30 min, the free and the bound radioligand was separated by filtration through GF/B glass fiber filters (Whatman, England) on a Skatron cell collector (Skatron, Lier, Norway) and the filters were washed with ice-cold tris HCl buffer, pH 7.4 with 0.2% of BSA. The radioactivity collected on the filters was quantified using a Packard 2200 CA liquid scintillation counter.

[2] = target: T2, human ETB receptor (Homo sapiens, UniProt P24530); assay: ETB receptor binding test ([125I]-ET3, CHO cell membranes); conditions: cloned human ETB receptor-expressing CHO cell membranes, 25 pM [125I]-ET3, 25° C., 30 min
T2 construct: expressed in transfected cells; host or cells: CHO cells
T2 sequence (P24530 27-442): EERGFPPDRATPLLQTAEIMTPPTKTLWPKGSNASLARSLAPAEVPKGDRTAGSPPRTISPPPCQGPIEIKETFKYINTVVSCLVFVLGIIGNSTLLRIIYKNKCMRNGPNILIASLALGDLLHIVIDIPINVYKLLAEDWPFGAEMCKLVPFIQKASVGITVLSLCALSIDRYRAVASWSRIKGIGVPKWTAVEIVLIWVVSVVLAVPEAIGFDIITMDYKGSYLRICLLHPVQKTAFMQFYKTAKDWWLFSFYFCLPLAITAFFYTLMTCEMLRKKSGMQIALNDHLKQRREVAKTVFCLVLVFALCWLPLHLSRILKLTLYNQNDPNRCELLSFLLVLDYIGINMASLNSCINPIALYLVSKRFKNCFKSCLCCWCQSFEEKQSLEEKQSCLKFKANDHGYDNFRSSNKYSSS
Description: as §1, §2, §3, §4

SMILES	Ki [1]	Ki [2]
CCN(CC)C(=O)NC(c1ccccc1)(c1ccccc1)C(Oc1nc(OC)cc(OC)n1)C(=O)O (stereo not drawn) [Compound I-86, N-[(Diethylamino)carbonyl]-2-[(4,6-dimethoxy-2-pyrimidinyl)oxy]-3,3-diphenyl-β-alanine]	0.253 µM	> 10 µM
COc1ccc(OC(=O)NC(c2ccccc2)(c2ccccc2)C(Oc2nc(OC)cc(OC)n2)C(=O)O)cc1 (stereo not drawn) [Compound I-170, 2-[(4,6-Dimethoxy-2-pyrimidinyl)oxy]-N-[(4-methoxyphenoxy)-carbonyl]-3,3-diphenyl-β-alanine]	0.12 µM	1.93 µM
Cc1cc(C)nc(OC(C(=O)O)C(NC(=O)N(C)C2CCCCC2)(c2ccccc2)c2ccccc2)n1 (stereo not drawn) [Compound I-202, N-{[Cyclohexyl(methyl)amino]carbonyl}-2-[(4,6-dimethyl-2-pyrimidinyl)oxy]-3,3-diphenyl-β-alanine]	0.019 µM	0.195 µM
COc1cc(OC)nc(OC(C(=O)O)C(NC(=O)N(C)Cc2ccccc2)(c2ccccc2)c2ccccc2)n1 (stereo not drawn) [Compound I-260, N-{[Benzyl(methyl)amino]carbonyl}-2-[(4,6-dimethoxy-2-pyrimidinyl)oxy]-3,3-diphenyl-β-alanine]	0.235 µM	2.44 µM
COC(=O)NC(c1ccccc1)(c1ccccc1)C(Oc1nc(OC)cc(OC)n1)C(=O)O (stereo not drawn) [Compound I-230, 2-[(4,6-Dimethoxy-2-pyrimidinyl)oxy]-N-(methoxycarbonyl)-3,3-diphenyl-β-alanine]	0.089 µM	> 10 µM
COc1cc(OC)nc(OC(C(=O)O)C(NC(=O)OCc2cc(OC)c(OC)cc2[N+](=O)[O-])(c2ccccc2)c2ccccc2)n1 (stereo not drawn) [Compound I-266, N-{[(4,5-Dimethoxy-2-nitrobenzyl)oxy]carbonyl}-2-((4,6-dimethoxy-2-pyrimidinyl)oxy]-3,3-diphenyl-β-alanine]	0.013 µM	1.09 µM
COc1cc(OC)nc(OC(C(=O)O)C(NC(=O)Oc2ccc(C)c(C)c2)(c2ccccc2)c2ccccc2)n1 (stereo not drawn) [Compound I-168, 2-[(4,6-Dimethoxy-2-pyrimidinyl)oxy]-N-[(3,4-dimethylphenoxy)-carbonyl]-3,3-diphenyl-β-alanine]	0.105 µM	0.73 µM
COc1ccc(CN(C)C(=O)NC(c2ccccc2)(c2ccccc2)C(Oc2nc(C)cc(C)n2)C(=O)O)cc1 (stereo not drawn) [Compound I-194, 2-[(4,6-Dirnethyl-2-pyrimidinyl)oxy]-N-{[(4-methoxybenzyl)-(methyl)amino]carbonyl}-3,3-diphenyl-β-alanine]	0.014 µM	2.33 µM
Cc1cc(C)nc(OC(C(=O)O)C(NC(=O)N2CCCC2)(c2ccccc2)c2ccccc2)n1 (stereo not drawn) [Compound I-26, 2-[(4,6-Dimethyl-2-pyrimidinyl)oxy]-3,3-diphenyl-N-(1-pyrrolidinylcarbonyl)-β-alanine]	0.053 µM	3.85 µM
COc1ccc(CN(C)C(=O)NC(c2ccccc2)(c2ccccc2)C(Oc2nc(OC)cc(OC)n2)C(=O)O)cc1 (stereo not drawn) [Compound I-23, 2-[(4,6-Dimethoxy-2-pyrimidinyl)oxy]-N-{[(4-methoxybenzyl)-(methyl)amino]carbonyl}-3,3-diphenyl-β-alanine]	0.147 µM	6.62 µM
COc1cc(OC)nc(OC(C(=O)O)C(NC(=O)OCc2ccccc2)(c2ccccc2)c2ccccc2)n1 (stereo not drawn) [Compound I-140, N-[(Benzyloxy)carbonyl]-2-[(4,6-dimethoxy-2-pyrimidinyl)oxy]-3,3-diphenyl-β-alanine]	0.097 µM	2.34 µM
COc1ccc(N(C)C(=O)NC(c2ccccc2)(c2ccccc2)C(Oc2nc(OC)cc(OC)n2)C(=O)O)cc1 (stereo not drawn) [Compound I-121, 2-[(4,6-Dimethoxy-2-pyrimidinyl)oxy]-N-{[4-methoxy(methyl)-anilino]carbonyl}-3,3-diphenyl-β-alanine]	0.31 µM	≥ 10 µM
COc1cc(OC)nc(OC(C(=O)O)C(NC(=O)N(C)C)(c2ccccc2)c2ccccc2)n1 (stereo not drawn) [Compound I-11, 2-[(4,6-Dimethoxy-2-pyrimidinyl)oxy]-N-[(dimethylamino)carbonyl]-3,3-diphenyl-β-alanine]	0.397 µM	> 10 µM
Cc1cc(C)nc(OC(C(=O)O)C(NC(=O)N2CCOCC2)(c2ccccc2)c2ccccc2)n1 (stereo not drawn) [Compound I-75, 2-[(4,6-Dimethyl-2-pyrimidinyl)oxy]-N-(4-morpholinylcarbonyl)-3,3-diphenyl-β-alanine]	0.117 µM	3.45 µM
Cc1cc(C)nc(OC(C(=O)O)C(NC(=O)N2CCCCC2)(c2ccccc2)c2ccccc2)n1 (stereo not drawn) [Compound I-52, 2-[(4,6-Dimethyl-2-pyrimidinyl)oxy]-3,3-diphenyl-N-(1-piperidinylcarbonyl)-β-alanine]	0.073 µM	4.22 µM
COc1cc(OC)nc(OC(C(=O)O)C(NC(=O)N(C)c2ccccc2)(c2ccccc2)c2ccccc2)n1 (stereo not drawn) [Compound I-155, 2-[(4,6-Dimethoxy-2-pyrimidinyl)oxy]-N-[(methylanilino)carbonyl]-3,3-diphenyl-β-alanine]	0.265 µM	5.77 µM
